{"source": "patent US10874683B2", "about": "“N4-hydroxycytidine and derivatives and anti-viral uses related thereto” (Emory University, priority 2016, dated 2020)", "key": {"VEEV [1]": {"system": "VEEV", "assay": "microbe, parasite or virus in culture", "type": "cell-based", "settings": "Venezuelan equine encephalitis virus, HeLa; for inhibition at 10 µM: read-out: Viral Inh. 10 uM; for inhibition at 50 µM: read-out: Viral Inh. 50 uM"}, "VEEV [2]": {"system": "VEEV", "assay": "microbe, parasite or virus in culture", "type": "cell-based", "settings": "Venezuelan equine encephalitis virus, Astrocyte; for inhibition at 10 µM: read-out: Viral Inh. 10 uM; for inhibition at 50 µM: read-out: Viral Inh. 50 uM"}, "MERV": {"system": "MERV", "assay": "MERV (MOI 0.4) viral inhibition in VERO", "type": "cell-based", "settings": "for inhibition at 10 µM: read-out: Viral Inh. 10 uM; for inhibition at 50 µM: read-out: Viral Inh. 50 uM"}, "VERO": {"system": "VERO", "assay": "Cell viability, VERO (MERV screen)", "type": "cell-based"}}, "note": "Like-named read-outs stand apart in the source and are kept apart here."}
{"smiles": "CCCCCCCOC(=O)ONc1ccn([C@@H]2O[C@H](CO)[C@H](O)C2O)c(=O)n1", "note": "(stereo partly drawn) [drawing 87]", "values": [{"measurement": "EC50", "setting": "VEEV [1]", "value": 0.57, "unit": "µM"}, {"measurement": "inhibition at 10 µM", "setting": "VEEV [1]", "value": 100, "unit": "%"}, {"measurement": "inhibition at 50 µM", "setting": "VEEV [1]", "value": 100, "unit": "%"}, {"measurement": "Cell Viability 10 uM", "setting": "HeLa", "value": "116% ± 20% (n = 4)"}, {"measurement": "Cell Viability 50 uM", "setting": "HeLa", "value": "85% ± 8% (n = 4)"}]}
{"smiles": "CC(C)OC(=O)[C@H](C)NP(=O)(OC[C@H]1O[C@@H](n2ccc(NO)nc2=O)C(O)[C@H]1O)Oc1ccccc1", "note": "(stereo partly drawn) [drawing 88]", "values": [{"measurement": "EC50", "setting": "VEEV [1]", "value": 16.2, "unit": "µM"}, {"measurement": "inhibition at 10 µM", "setting": "VEEV [1]", "value": 73, "unit": "%"}, {"measurement": "inhibition at 50 µM", "setting": "VEEV [1]", "value": 100, "unit": "%"}, {"measurement": "Cell Viability 10 uM", "setting": "HeLa", "value": "137% ± 16% (n = 4)"}, {"measurement": "Cell Viability 50 uM", "setting": "HeLa", "value": "134% ± 16% (n = 4)"}]}
{"smiles": "O=c1nc(NO)c(F)cn1[C@@H]1O[C@H](CO)[C@H](O)C1O", "note": "(stereo partly drawn) [drawing 89]", "values": [{"measurement": "inhibition at 10 µM", "setting": "VEEV [1]", "value": 61, "unit": "%"}, {"measurement": "inhibition at 50 µM", "setting": "VEEV [1]", "value": 98, "unit": "%"}, {"measurement": "Cell Viability 10 uM", "setting": "HeLa", "value": "55% ± 4% (n = 4)"}, {"measurement": "Cell Viability 50 uM", "setting": "HeLa", "value": "36% ± 2% (n = 4)"}]}
{"smiles": "CCCCCCCNC(=O)ONc1ccn([C@@H]2O[C@H](CO)[C@H](O)C2O)c(=O)n1", "note": "(stereo partly drawn) [drawing 90]", "values": [{"measurement": "EC50", "setting": "VEEV [1]", "value": 6, "unit": "µM"}, {"measurement": "inhibition at 10 µM", "setting": "VEEV [1]", "value": 93, "unit": "%"}, {"measurement": "inhibition at 50 µM", "setting": "VEEV [1]", "value": 100, "unit": "%"}, {"measurement": "Cell Viability 10 uM", "setting": "HeLa", "value": "151% ± 16% (n = 4)"}, {"measurement": "Cell Viability 50 uM", "setting": "HeLa", "value": "126% ± 7% (n = 4)"}]}
{"smiles": "O=c1nc(NO)ccn1[C@@H]1O[C@H](CO)[C@H](O)C1O", "note": "(stereo partly drawn) [drawing 91]", "values": [{"measurement": "inhibition at 10 µM", "setting": "VEEV [2]", "value": 99, "unit": "%"}, {"measurement": "inhibition at 50 µM", "setting": "VEEV [2]", "value": 100, "unit": "%"}, {"measurement": "Cell Viability 10 uM", "setting": "Astrocytes", "value": "98% ± 12% (n = 3)"}, {"measurement": "Cell Viability 50 uM", "setting": "Astrocytes", "value": "86% ± 5% (n = 3)"}]}
{"smiles": "CCCCCCCOC(=O)ONc1ccn([C@@H]2O[C@H](CO)[C@H](O)C2O)c(=O)n1", "note": "(stereo partly drawn) [drawing 92]", "values": [{"measurement": "inhibition at 10 µM", "setting": "VEEV [2]", "value": 94, "unit": "%"}, {"measurement": "inhibition at 50 µM", "setting": "VEEV [2]", "value": 100, "unit": "%"}, {"measurement": "Cell Viability 10 uM", "setting": "Astrocytes", "value": "99% ± 9% (n = 3)"}, {"measurement": "Cell Viability 50 uM", "setting": "Astrocytes", "value": "94% ± 10% (n = 3)"}]}
{"smiles": "CC(C)OC(=O)[C@H](C)NP(=O)(OC[C@H]1O[C@@H](n2ccc(NO)nc2=O)C(O)[C@H]1O)Oc1ccccc1", "note": "(stereo partly drawn) [drawing 93]", "values": [{"measurement": "inhibition at 10 µM", "setting": "VEEV [2]", "value": 49, "unit": "%"}, {"measurement": "inhibition at 50 µM", "setting": "VEEV [2]", "value": 96, "unit": "%"}, {"measurement": "Cell Viability 10 uM", "setting": "Astrocytes", "value": "102% ± 16% (n = 3)"}, {"measurement": "Cell Viability 50 uM", "setting": "Astrocytes", "value": "100% ± 17% (n = 3)"}]}
{"smiles": "CCCCCCCNC(=O)ONc1ccn([C@@H]2O[C@H](CO)[C@H](O)C2O)c(=O)n1", "note": "(stereo partly drawn) [drawing 95]", "values": [{"measurement": "inhibition at 10 µM", "setting": "VEEV [2]", "value": 51, "unit": "%"}, {"measurement": "inhibition at 50 µM", "setting": "VEEV [2]", "value": 37, "unit": "%"}, {"measurement": "Cell Viability 10 uM", "setting": "Astrocytes", "value": "98% ± 12% (n = 3)"}, {"measurement": "Cell Viability 50 uM", "setting": "Astrocytes", "value": "85% ± 19% (n = 3)"}]}
{"smiles": "O=c1nc(NO)ccn1[C@@H]1O[C@H](CO)[C@H](O)C1O", "note": "(stereo partly drawn) [drawing 96]", "values": [{"measurement": "inhibition at 10 µM", "setting": "MERV", "value": 99, "unit": "%"}, {"measurement": "inhibition at 50 µM", "setting": "MERV", "value": 100, "unit": "%"}, {"measurement": "Cell Viability 10 uM", "setting": "VERO", "value": "75% ± 6% (n = 4)"}, {"measurement": "Cell Viability 50 uM", "setting": "VERO", "value": "47% ± 3% (n = 4)"}]}
{"smiles": "CCCCCCCOC(=O)ONc1ccn([C@@H]2O[C@H](CO)[C@H](O)C2O)c(=O)n1", "note": "(stereo partly drawn) [drawing 97]", "values": [{"measurement": "inhibition at 10 µM", "setting": "MERV", "value": 99, "unit": "%"}, {"measurement": "inhibition at 50 µM", "setting": "MERV", "value": 99, "unit": "%"}, {"measurement": "Cell Viability 10 uM", "setting": "VERO", "value": "84% ± 8% (n = 4)"}, {"measurement": "Cell Viability 50 uM", "setting": "VERO", "value": "58% ± 2% (n = 4)"}]}
{"smiles": "CC(C)OC(=O)[C@H](C)NP(=O)(OC[C@H]1O[C@@H](n2ccc(NO)nc2=O)C(O)[C@H]1O)Oc1ccccc1", "note": "(stereo partly drawn) [drawing 98]", "values": [{"measurement": "inhibition at 10 µM", "setting": "MERV", "value": 29, "unit": "%"}, {"measurement": "inhibition at 50 µM", "setting": "MERV", "value": 85, "unit": "%"}, {"measurement": "Cell Viability 10 uM", "setting": "VERO", "value": "103% ± 14% (n = 4)"}, {"measurement": "Cell Viability 50 uM", "setting": "VERO", "value": "102% ± 36% (n = 4)"}]}
{"smiles": "CCCCCCCNC(=O)ONc1ccn([C@@H]2O[C@H](CO)[C@H](O)C2O)c(=O)n1", "note": "(stereo partly drawn) [drawing 100]", "values": [{"measurement": "inhibition at 10 µM", "setting": "MERV", "value": 86, "unit": "%"}, {"measurement": "inhibition at 50 µM", "setting": "MERV", "value": 98, "unit": "%"}, {"measurement": "Cell Viability 10 uM", "setting": "VERO", "value": "118% ± 15% (n = 4)"}, {"measurement": "Cell Viability 50 uM", "setting": "VERO", "value": "91% ± 39% (n = 4)"}]}
